Common to all, as to format: in vivo, mouse
One assay relates to p-eNOS (Ser-1177). Put plainly: Western blot of penis homogenates, p-eNOS (Ser-1177). As to conditions: SCD mice, haptoglobin 400 mg/kg s.c. 1 month; normalized to eNOS; P<0.05. The procedure:
(§1) All mice strains were originally purchased from Jackson Laboratories (Bar Harbor, ME). Characterization and breeding were performed at the Multidisciplinary Center for the Investigation of Biological Science in Laboratory Animals of University of Campinas. C57BL/6 male mice (wild-type, WT) and Berkeley transgenic SCD mice, aged 3 to 4 months-old, were used. Mice were housed three per cage on a 12 h light-dark cycle. SCD male mice were treated with treatment with haptoglobin (400 mg/kg, subcutaneous) or vehicle of Monday, Wednesday and Friday for a period of 1 month (24).
(§2) Corpus cavernosum tissue was homogenized in lysis buffer and centrifuged at 12,000 g for 20 minutes at 4° C. Homogenates containing […] total proteins were run on 4-20% Tris-HCl gels (Bio-Rad Laboratories, Hercules, CA, USA) and transferred to a nitrocellulose membrane. Nonfat dry milk 5% (Bio-Rad) in Tris-buffered saline/Tween was used for 1 hour at 24° C. to block nonspecific binding sites. […] Densitometry was analyzed using the Image J Software (National Institute of Health, Bethesda-MD, USA). Quantified densitometry results were normalized to β-actin. Quantified densitometry results of eNOS phosphorylated at Ser1177 were normalized to total eNOS.
In general terms: A western blot detects proteins with antibodies after separation by electrophoresis.

The next assay concerns eNOS. The experiment in a line: Western blot of penis homogenates, eNOS. The following applies: SCD mice, haptoglobin 400 mg/kg s.c. 1 month; normalized to β-actin; P<0.05. The procedure:
as §1, §2

For another assay, the system named is 3-nitrotyrosine. Put plainly: Western blot of penis homogenates, 3-nitrotyrosine. As to conditions: SCD mice, haptoglobin 400 mg/kg s.c. 1 month, vs SCD-vehicle. How it is done: as §1, §2
In the next assay the test system is ROCK2. The experiment in a line: Western blot of penis homogenates, ROCK2. The following applies: SCD mice, haptoglobin 400 mg/kg s.c. 1 month; normalized to β-actin. The procedure: as §1, §2
The subject of the next assay is ROCK1. Put plainly: Western blot of penis homogenates, ROCK1. As to conditions: SCD mice, haptoglobin 400 mg/kg s.c. 1 month; compared to WT-vehicle. How it is done: as §1, §2
Assay [1] concerns corpus cavernosum strips from SCD mice. The experiment in a line: Electrical-field stimulation (EFS)-induced nitrergic relaxations of cavernosal strips. As to conditions: 2-32 Hz, guanethidine and atropine pretreated strips, haptoglobin 400 mg/kg s.c. 1 month. The procedure:
as §1
EFS was applied on cavernosal strips placed between two platinum ring electrodes connected to a Grass S88 stimulator (Astro-Med Industrial Park, RI, USA). EFS was conducted at 50 V, 1 ms pulse width and trains of stimuli lasting 10 sec at varying frequencies. In order to study the nitrergic cavernosal relaxations, tissues were pretreated with guanethidine (3×10^−5 M; to deplete the catecholamine stores of adrenergic fibers) and atropine (10^−6 M; to produce muscarinic antagonism) for 30 minutes prior to pre-contraction with phenylephrine (10^−5 M). When a stable contraction level was attained, a series of EFS-induced relaxations were constructed (2-32 Hz).

For assay [2] the test system is unchanged. The experiment in a line: Concentration-response contraction curves to phenylephrine and KCl in cavernosal strips. As to conditions: SCD mice treated with haptoglobin 400 mg/kg s.c. 1 month, mean ± SEM. How it is done:
as §1
Strips of mouse corpus cavernosum were mounted in a 7-ml organ system containing Krebs solution at 37° C., continuously bubbled with a mixture of 95% O2 and 5% CO2 (pH 7.4), and suspended between two metal hooks. One hook was connected to a force transducer and the other acted as a fixed attachment point. Tissues were allowed to equilibrate for 60 min under a resting tension of 2.5 mN. Isometric force was recorded using a PowerLab 400™ data acquisition system (Software LabChart, version 7.0, AD Instrument, MA, USA). Cumulative concentration-response curves were constructed for the muscarinic agonist acetylcholine (ACh; 10^−9 to 10^−5 M) and sodium nitroprusside (SNP; 10^−8 to 10^−4 M) in cavernosal strips pre-contracted with phenylephrine (10^−5 M). […]

The subject of the next assay is nNOS. Put plainly: Western blot of penis homogenates, nNOS. As to conditions: SCD mice, haptoglobin 400 mg/kg s.c. 1 month; normalized to β-actin. How it is done:
as §1, §2

The next assay relates to cGMP. Put plainly: Determination of basal cGMP levels in penis (enzyme immunoassay). As to conditions: SCD mice, haptoglobin treatment, vs SCD-vehicle, P<0.05. The procedure: as §1
Quantitative assays for cGMP were performed using a commercial enzyme immunoassay kit (Cayman Chemical Cyclic GMP EIA kit, Ann Arbor, MI, USA). For penile cGMP content, frozen penile tissue was homogenized in 5% trichloroacetic acid and centrifuged. TCA was extracted from the supernatant with three washes of water-saturated ether. cGMP was expressed as pmol/mg tissue.

Assay [3] concerns NADPH oxidase subunit gp91phox. Put plainly: Western blot of penis homogenates, gp91phox. The following applies: SCD mice, haptoglobin 400 mg/kg s.c. 1 month; normalized to β-actin. The procedure:
as §1, §2

Assay [4] relates to corpus cavernosum strips from SCD mice. The experiment in a line: Concentration-response relaxation curves to ACh and SNP in cavernosal strips pre-contracted with phenylephrine. How it is done: as §1
Strips of mouse corpus cavernosum were mounted in a 7-ml organ system containing Krebs solution at 37° C., continuously bubbled with a mixture of 95% O2 and 5% CO2 (pH 7.4), and suspended between two metal hooks. One hook was connected to a force transducer and the other acted as a fixed attachment point. Tissues were allowed to equilibrate for 60 min under a resting tension of 2.5 mN. Isometric force was recorded using a PowerLab 400™ data acquisition system (Software LabChart, version 7.0, AD Instrument, MA, USA). Cumulative concentration-response curves were constructed for the muscarinic agonist acetylcholine (ACh; 10^−9 to 10^−5 M) and sodium nitroprusside (SNP; 10^−8 to 10^−4 M) in cavernosal strips pre-contracted with phenylephrine (10^−5 M). Cumulative concentration-response curves to the contractile agent phenylephrine (α1-adrenergic receptor agonist, 10^−8 to 3×10^−4 M) and KCl (3×10^−4 to 3×10^−1 M) were obtained in cavernosal strips. Nonlinear regression analysis to determine the pEC50 was carried out using GraphPad Prism (GraphPad Software, San Diego, CA, USA).

A further assay has as its system PDE5. Put plainly: Western blot of penis homogenates, PDE5. The following applies: SCD mice, haptoglobin 400 mg/kg s.c. 1 month, vs SCD-vehicle. The procedure: as §1, §2
For another assay, the system named is 4-HNE. The experiment in a line: Western blot of penis homogenates, 4-HNE. The following applies: SCD mice, haptoglobin 400 mg/kg s.c. 1 month, vs SCD-vehicle. The procedure:
as §1, §2

For “Haptoglobin: Human haptoglobin (Hp) solution, a kind gift from CSL Behring; plasma glycoprotein that binds free hemoglobin”, the “Protein level of p-eNOS (Ser-1177) in penis” value in the assay on p-eNOS (Ser-1177) is reported as “normalized”. In addition, in the assay with eNOS, the “Protein level of eNOS in penis” value is listed as “normalized”. Also, the “Reduction of protein level of 3-nitrotyrosine in penile tissue” value with 3-nitrotyrosine is “approximately 27%”. Also, in the assay on ROCK2, the “Protein levels of ROCK2 in penis” value is “fully restored”. Besides, the “Protein expression of ROCK1 in penis” value in the assay with ROCK1 is given as “not modified”. Moreover, the “Effect of treatment on EFS-induced relaxant responses” value in [1] is listed as “reduced”. The “Emax of KCl-induced contraction” value in assay [2] (KCl, receptor-independent) was found to be 0.30±0.07 mN. Also, the “Emax of phenylephrine-induced contraction” value in assay [2] (phenylephrine 10^-8 to 3x10^-4 M) is 0.79±0.11 mN. In the assay on nNOS, the “Protein expression of nNOS in penis” value is listed as “not modified”. Also, the “Increase of basal cGMP levels in penis” value with cGMP is given as “approximately 72%”. In assay [3], the “Protein levels of gp91phox in penis” value was “fully restored”. In addition, the “Effect of treatment on raised SNP pEC50 value” in assay [4] (SCD mice, haptoglobin 400 mg/kg s.c., P<0.05) is reported as “reversed”. Further, in assay [4] (SCD mice, haptoglobin 400 mg/kg s.c., vs SCD-vehicle), the “Effect of treatment on Emax produced by SNP” value is “reduced”. Moreover, the “Effect of treatment on Emax values of ACh” value in [4] (SCD mice, haptoglobin 400 mg/kg s.c., vs SCD-vehicle, P<0.05) is given as “reduced”. Further, the “Effect on potency (pEC50) for ACh among the groups” value in [4] (WT-vehicle, SCD-vehicle, SCD-haptoglobin) is “No significant differences”. Also, the “pEC50 of ACh relaxation curve, SCD-Haptoglobin” value in [4] (agonist ACh, cavernosal strips from SCD mice treated with haptoglobin 400 mg/kg s.c. Mon/Wed/Fri for 1 month, mean ± SEM) is 7.12. Moreover, the “Emax (%) of ACh relaxation curve, SCD-Haptoglobin” value in assay [4] (agonist ACh, relative to phenylephrine (10^-5 M) contraction = 100%, SCD mice, haptoglobin 400 mg/kg s.c. 3x/week, 1 month, mean ± SEM) was 42 ± 6 %. Moreover, in assay [4] (agonist SNP, cavernosal strips from SCD mice treated with haptoglobin 400 mg/kg s.c. Mon/Wed/Fri for 1 month, mean ± SEM), the “pEC50 of SNP relaxation curve, SCD-Haptoglobin” value came out at 6.08. For the same substance, the “Emax (%) of SNP relaxation curve, SCD-Haptoglobin” value in assay [4] (agonist SNP, relative to phenylephrine (10^-5 M) contraction = 100%, SCD mice, haptoglobin 400 mg/kg s.c. 3x/week, 1 month, mean ± SEM) worked out at 78 ± 4%. The “Increase of protein level of PDE5 in penis” value with PDE5 was “approximately 52%”. For the same substance, the “Reduction of protein level of 4-HNE in penile tissue” value with 4-HNE is given as approximately 28%.

Source of the values: patent US20260069657A1, “Haptoglobulin for Use in Treating or Preventing Exaggerated Erectile Response or Erectile Dysfunction” (CSL Behring AG, priority 2022, published 2026).
